US11466044B2 (WAYNE STATE UNIVERSITY, priority 2017, dated 2022)
pIC50: −log10 of the molar value. ≈ marks a conversion by molar mass, not a printed value. Structures can show the parent of a compound that is named as a salt. Where two headings read alike, the source gives them in different places.

How the values were obtained:
[1] = tested on: MRSA; assay: MIC by broth microdilution, MRSA isolates; type: cell-based; details: Staphylococcus aureus, MRSA, Table 1 (Example 3)
[2] = tested on: E coli wild type; assay: MIC by broth microdilution, wild type E coli; type: cell-based; details: for MIC: Escherichia coli
[3] = tested on: P aeruginosa; assay: MIC by broth microdilution, P aeruginosa isolates; type: cell-based, Pseudomonas aeruginosa; details: strain AG220 Pseudomonas aeruginosa ATCC27853; read-out: MIC AG220 P. aerugin
[4] = tested on: E coli carrying specific resistance determinants; assay: MIC by broth microdilution, E coli carrying specific resistance determinants; type: cell-based; details: for MIC: Escherichia coli
[5] = tested on: M. abscessus; assay: MIC by broth microdilution, M. abscessus; type: cell-based; details: Mycobacteroides abscessus
[6] = tested on: wild type bacterial ribosomes; assay: in-vitro translation assay, bacterial ribosomes; type: biochemical; details: for pIC50: bacterial ribosome, Table 4 (Example 3), read-out: IC50 Bac; for selectivity for the bacterial ribosome over mitochondrial (wild type, A1555G mutant) and cytosolic ribosomes, in words: compared with the parent compound
From the text: (§1) The antiribosomal activity of these compounds was investigated with cell-free translation assays using both wild type bacterial ribosomes and hybrid ribosomes carrying eukaryotic decoding A sites enabling the prediction of selectivity.

[7] = tested on: A1555G mutant mitochondrial ribosome (human chimeric); assay: in-vitro translation assay, human chimeric ribosomes, A1555G mutant mitochondrial decoding site; type: biochemical; details: Table 3 (Example 3)
From the text: as §1

[8] = tested on: cytosolic ribosome (human chimeric); type: biochemical; details: for Selectivity for Binding to the Bacterial Ribosome over the Cytosolic Ribosome: Table 3 (Example 3); for pIC50: cytosolic, Table 4 (Example 3), read-out: IC50 Cyt
From the text: as §1

[9] = tested on: mitochondrial ribosome (human chimeric); type: biochemical; details: for Selectivity for Binding to the Bacterial Ribosome over the Mitochondrial Ribosome: Table 3 (Example 3); for pIC50: mitochondrial, Table 4 (Example 3), read-out: IC50 Mit
From the text: as §1

[10] = tested on: Klebsiella pneumonia AG215; assay: MIC by broth microdilution, Klebsiella pneumonia; type: cell-based; details: Klebsiella pneumoniae; strain AG215 Klebsiella pneumonia; read-out: MIC AG215 K. pneumon
[11] = tested on: Acinetobacter baumannii pittii AG225; assay: MIC by broth microdilution, Acinetobacter baumannii; type: cell-based; details: strain AG225 Acinetobacter baumannii pittii
[12] = tested on: Enterobacter cloacae AG290; assay: MIC by broth microdilution, Enterobacter cloacae; type: cell-based; details: strain AG290 Enterobacter cloacae; read-out: MIC AG290 E. cloacae
[13] = Casinelli et al., J Antibiotics 1978, 31, 378 and 382; cited from earlier work
[14] = tested on: M. smegmatis SZ380; assay: MIC by broth microdilution, M. smegmatis; details: Mycolicibacterium smegmatis
[15] = tested on: N. gonorrhoeae; assay: Disk diffusion, N. gonorrhoeae; type: cell-based; details: Neisseria gonorrhoeae
[16] = clinical isolate AG038, read-out: MIC MRSA AG038
[17] = clinical isolate AG039, read-out: MIC MRSA AG039
[18] = clinical isolate AG042, read-out: MIC MRSA AG042
[19] = AG006 Wild type, Table 2 (Example 3), read-out: MIC E coli AG006 Wild type
[20] = AG104 Wild type, Table 2 (Example 3), read-out: MIC E coli AG104 Wild type
[21] = ATCC25922, strain AG212 E. coli (ATCC25922), read-out: MIC AG212 E. coli
[22] = WT, Table 4 (Example 3), read-out: MIC E. coli WT
[23] = WT, Table 5 (Example 3), read-out: MIC E. coli WT
[24] = clinical isolate AG001, Table 1 (Example 3), read-out: MIC E coli AG001
[25] = clinical isolate AG003, Table 1 (Example 3), read-out: MIC E coli AG003
[26] = clinical isolate AG055, Table 1 (Example 3), read-out: MIC E coli AG055
[27] = read-out: MIC E coli AG106 AAC(2′)
[28] = read-out: MIC E. coli AAC(2′) AG106
[29] = read-out: MIC E. coli AAC(2′) pH434
[30] = read-out: MIC E. coli AG106 AAC(2′)-Ia
[31] = read-out: MIC E. coli pGB2armA armA
[32] = read-out: MIC E. coli pH434 AAC(2′)-Ib
[33] = ATCC19977, ATCC 19977 WT, Table 5 (Example 3), read-out: MIC M. abscessus ATCC 19977 WT
[34] = read-out: MIC M. abscessus engineered Δeis2
[35] = ATCC, Table 4 (Example 3), read-out: MIC M. abscessus ATCC
[36] = Clin. Isol., Table 4 (Example 3), read-out: MIC M. abscessus Clin. Isol.
[37] = SZ380, read-out: MIC M. smegmatis SZ380 WT, SZ380 WT, Table 5 (Example 3)
[38] = SZ380, read-out: MIC SZ380 M. smegmatis, strain SZ380 Mycobacterium smegmatis

Row | SMILES | MIC [1, 16] | MIC [1, 17] | MIC [1, 18] | MIC [2, 19] | MIC [2, 20] | MIC [2, 21] | MIC [2, 22] | MIC [2, 23] | MIC [2, 24] | MIC [2, 25] | MIC [2, 26] | MIC [3] | MIC [4, 27] | MIC [4, 28] | MIC [4, 29] | MIC [4, 30] | MIC [4, 31] | MIC [4, 32] | MIC [5, 33] | MIC [5, 34] | further results
1 | NCC1OC(OC2C(CO)OC(OC3C(O)C(N)CC(N)C3OC3OC(CN)C(O)C(O)C3O)C2O)C(N)C(O)C1O (stereo not shown) [Compound 119] | 2 µg/mL (≈ 3.25 µM) | > 128 µg/mL | > 128 µg/mL | 0.5 µg/mL (≈ 0.812 µM) | 1 µg/mL (≈ 1.62 µM) | 1 µg/mL (≈ 1.62 µM) | 0.5 to 1 µg/mL (≈ 0.812 to 1.62 µM) | 0.5 to 1 µg/mL (≈ 0.812 to 1.62 µM) | 2 to 4 µg/mL (≈ 3.25 to 6.5 µM) | 2 to 4 µg/mL (≈ 3.25 to 6.5 µM) | 2 to 4 µg/mL (≈ 3.25 to 6.5 µM) | > 64 µg/mL | 1 µg/mL (≈ 1.62 µM) | 1 µg/mL (≈ 1.62 µM) | 4 µg/mL (≈ 6.5 µM) | 1 µg/mL (≈ 1.62 µM) | 1 µg/mL (≈ 1.62 µM) | 4 µg/mL (≈ 6.5 µM) | 2 µg/mL (≈ 3.25 µM) | 0.125 µg/mL (≈ 0.203 µM) | MIC ([1]; clinical isolate AG044, read-out: MIC MRSA AG044): 2 µg/mL (≈ 3.25 µM); antibacterial activity, in words ([2]; MRSA and E coli, compared with the parent compound): little to no loss of antibacterial activity; effect of the AAC(2′) resistance determinant, in words ([4]; AAC(2′)): overcomes the effect of AAC(2′); MIC [5, 35]: 2 µg/mL (≈ 3.25 µM); MIC [5, 36]: 4 µg/mL (≈ 6.5 µM); pIC50 [6]: 7.52; selectivity for the bacterial ribosome over mitochondrial (wild type, A1555G mutant) and cytosolic ribosomes, in words [6]: increased selectivity for the bacterial ribosome; Selectivity for Binding to the Bacterial Ribosome over the Mutant Mitochondrial Ribosome [7]: 94; Selectivity for Binding to the Bacterial Ribosome over the Cytosolic Ribosome [8]: 3667; pIC50 [8]: 3.97; Selectivity for Binding to the Bacterial Ribosome over the Mitochondrial Ribosome [9]: 1222; pIC50 [9]: 4.44; MIC [10]: 0.5 µg/mL (≈ 0.812 µM); MIC [11]: 1 µg/mL (≈ 1.62 µM); MIC [12]: 1 µg/mL (≈ 1.62 µM); antibiotic potency compared with the parent compounds, in words [13]: comparable antibiotic potency to the parent compounds; MIC [14, 37]: 0.5 µg/mL (≈ 0.812 µM); MIC [14, 38]: 0.5 µg/mL (≈ 0.812 µM)
2 | CNC1C(OC2C(N)CC(N)C(O)C2OC2OC(CO)C(OC3OC(CN)C(O)C(O)C3N)C2O)OC(CN)C(O)C1O (stereo not shown) [Compound 171, 2′-N-Methyl-neomycin acetate salt] | 0.25 to 0.5 µg/mL | > 32 µg/mL | > 32 µg/mL | 0.25 µg/mL | 0.5 µg/mL | 1 µg/mL | 0.5 µg/mL | 0.5 µg/mL | 1 µg/mL | 1 µg/mL | 1 µg/mL | > 64 µg/mL | 0.5 µg/mL | 0.5 µg/mL | 4 µg/mL | 0.5 µg/mL | 1 µg/mL | 4 µg/mL | 0.25 µg/mL | 0.063 µg/mL | MIC [5, 35]: 0.25 µg/mL; MIC [5, 36]: 0.5 µg/mL; pIC50 [6]: 8.00; selectivity for the bacterial ribosome over mitochondrial (wild type, A1555G mutant) and cytosolic ribosomes, in words [6]: increased selectivity for the bacterial ribosome; Selectivity for Binding to the Bacterial Ribosome over the Mutant Mitochondrial Ribosome [7]: 117; Selectivity for Binding to the Bacterial Ribosome over the Cytosolic Ribosome [8]: 4000; pIC50 [8]: 4.43; Selectivity for Binding to the Bacterial Ribosome over the Mitochondrial Ribosome [9]: 483; pIC50 [9]: 5.33; MIC [10]: 0.5 µg/mL; MIC [11]: 1 µg/mL; MIC [12]: 0.5 to 1 µg/mL; zone of inhibition at 25 nmol/disc [15]: 9 mm; MIC [14, 37]: < 0.063 µg/mL; MIC [14, 38]: < 0.0625 µg/mL
